Several values for one entry are separate records, joined by “and”; a condition that tells them apart may be missing. Identical values can stand only once. Like-named read-outs stand apart in the source and are kept apart here. Marks after values point to notes of the source that are not given here.
Legend:
IL-6 [1] = type: cell-based, NMRI mice; conditions: 24 h supernatant
[2] = system: collagen induced arthritis (CIA); test: Collagen induced arthritis, histopathological examination of joints; type: in vivo, B10.QxDBA/1 female mice
Procedure: Histopathological examination was performed after routine fixation, decalcification, paraffin embedding, and staining with hematoxylin and eosin. All the slides were coded and the joints were studied with regard to synovial hypertrophy (defined as a synovial membrane thickness of more than two cell layers), pannus formation (synovial tissue overlaying the joint cartilage), and cartilage and bone destruction (loss of tissue integrity with resulting ingrowth of fibrotic tissue) (11). The severity of synovial hypertrophy and cartilage/bone destruction was scored from 0 (intact synovial, cartilage/bone tissue) to 3 (intense synovitis with total destruction of cartilage and/or bone).

IL-1α = test: IL-1 release by IC-21 macrophage cell line; type: cell-based, murine
spleen mononuclear cells [3] = type: cell-based, NMRI mice; conditions: spleen cells from non-infected mice treated once a day for three days vs controls; FIG. 3
peripheral leukocytes = test: Hematological analyses in CII immunized mice; type: in vivo, B10.QxDBA/1 female mice
Procedure: Mice were bled from the tail into heparinized tubes at different time-points. The leukocytes were counted in a hemacytometer (Toa Medical Electronics, Kobe, Japan). Fifty microliters of the heparinized blood was analyzed in a FACScan cytometer (Becton Dickinson, San Jose, Calif.) to determine the percentages of lymphocytes, granulocytes, and monocytes. The absolute numbers of different leukocyte subsets were then calculated from the total leukocyte counts.

IL-6 [4] = type: cell-based; conditions: spleen cells of mice given 12.5 mg/kg 4 days a week for 4 weeks; mean ± SEM, 4 mice
TNF = TNF release by IC-21 macrophage cell line; type: cell-based, murine
Procedure: (§1) Levels of TNF, IL-1b, RANTES, and macrophage inflammatory protein (MIP)-1α were determined using sandwich ELISA from R&D Systems (Minneapolis, Minn.).
(§2) These cells display many typical features of the macrophage phenotype and are therefore a suitable model for studying cytoline and chemokine release during inflammation (16). The cells were maintained in continous culture using RPMI-1640 supplemented with 10% FCS, L-glutamine, and gentamycin. When the cells had grown to about 70% confluency, they were seeded into a 24-well-plate (Nunc) at a concentration of 1×10^5 per well and incubated at 37° C. in 5% CO2 for 24 h. […] After 24 h of incubation, the cells were washed once with PBS, and reincubated with medium containing different concentrations (1, 10, 100, 1000 ng/ml) of LPS (Difco) and IFN-γ (10, 50, 100 u/nml). The interferon-γ was purified from the supernatants from Chinese hanater ovary (CHO) cells transfected with the murine IFN-γ gene (hybridoma kindly provided by Dr. Morris, Department of Biological Sciences, University of Warwick, Coventry, UK). After 2 and 24 h of incubation the supernatants were collected and stored at −20° C. until analysis.

IL-6 [5] = test: IL-6 release by IC-21 macrophage cell line; type: cell-based, murine
Procedure: as §2

immunoglobulins = test: Serum total immunoglobulins (single radial immunodiffusion); type: in vivo, B10.QxDBA/1 female mice; conditions: serum at end of experiment, mean ± SEM
Procedure: Serum levels of immunoglobulins were measured by the single radial immunodiffusion technique (12). Antiserum was purchased from Dako (Dako A/S, Denmark) and mouse immunoglobulin standards were obtained from Sigma (Sigma Chemical Co., St. Louis, Mo.).

IC-21 cells = test: Viability and cell number of IC-21 cells; type: cell-based, murine; conditions: IC-21, etoposide-containing medium at concentrations 0.1 and 0.01 mM (so in the source); preliminary experiments, data not shown
Procedure: as §2, with “h. After 24 h the medium was changed into etoposide-containing medium at concentrations 0.1 and 0.01 mM.” for “h.”

spleen mononuclear cells [6] = type: cell-based, NMRI mice; conditions: spleen cells from naive mice, etoposide 1, 10, 100 μM; FIG. 2
RANTES = RANTES release by IC-21 macrophage cell line; type: cell-based, murine; conditions: data not shown
Procedure: as §1, §2

[7] = etoposide 1 μM, mean ± SEM, four mice
[8] = Etoposide pretreated, n 16, day 61
[9] = Etoposide treated (from day 40), n 17, day 61, mean ± SEM
[10] = Etoposide-pretreated, Day-2 (prior to experiment, baseline)
[11] = Etoposide-treated (from day 40), Day 61
[12] = Etoposide-treated (from day 40), Day-2 (baseline)

Compound: COc1cc([C@@H]2c3cc4c(cc3[C@@H](O[C@@H]3O[C@@H]5CO[C@@H](C)O[C@H]5[C@H](O)[C@H]3O)[C@H]3COC(=O)[C@H]23)OCO4)cc(OC)c1O [Etoposide]
- IL-6, ConA stimulated (IL-6 [1]; [7]): 825 ± 455 pg/mL
- IL-6, TSST-1 stimulated (IL-6 [1]; [7]): 45 ± 16b pg/ml
- IL-6, ConA stimulated (IL-6 [1]; etoposide 10 μM): <10^b pg/ml
- IL-6, TSST-1 stimulated (IL-6 [1]; etoposide 10 μM): <10^b pg/ml
- IL-6, ConA stimulated (IL-6 [1]; etoposide 100 μM): <10^b pg/ml
- IL-6, TSST-1 stimulated (IL-6 [1]; etoposide 100 μM): <10^b pg/ml
- Cartilage/bone destruction score [2, 8]: 0
- Synovial hypertrophy score [2, 8]: 0
- Cartilage/bone destruction score [2, 9]: 4.5 ± 2.4
- Synovial hypertrophy score [2, 9]: 2.4 ± 1.1
- Levels of IL-1α (IL-1α): No major differences
- Proliferative response, Con A stimulated (spleen mononuclear cells [3]): not when stimulated with Con A
- Proliferative response, TSST-1 stimulated (spleen mononuclear cells [3]): lower proliferative response
- Granulocytes (peripheral leukocytes; Etoposide-pretreated, Day 61): 698 ± 341^b × 10^4/ml
- Lymphocytes (peripheral leukocytes; Etoposide-pretreated, Day 61): 7.1 ± 3.4 × 10^6/ml
- Monocytes (peripheral leukocytes; Etoposide-pretreated, Day 61): 67 ± 20 × 10^4/ml
- Granulocytes (peripheral leukocytes; [10]): 71 ± 13 × 10^4/ml
- Lymphocytes (peripheral leukocytes; [10]): 4.7 ± 0.3 × 10^6/ml
- Monocytes (peripheral leukocytes; [10]): 18 ± 4 × 10^4/ml
- Granulocytes (peripheral leukocytes; [11]): 991 ± 326^b × 10^4/ml
- Lymphocytes (peripheral leukocytes; [11]): 14.3 ± 3.3^b × 10^6/ml
- Monocytes (peripheral leukocytes; [11]): 92 ± 24^a × 10^4/ml
- Granulocytes (peripheral leukocytes; [12]): 87 ± 20 × 10^4/ml
- Lymphocytes (peripheral leukocytes; [12]): 5.9 ± 0.8 × 10^6/ml
- Monocytes (peripheral leukocytes; [12]): 19 ± 3 × 10^4/ml
- IL-6, Con A (IL-6 [4]): 74 ± 15^a) pg/ml
- IL-6, TSST-1 (IL-6 [4]): 10 ± 3 pg/mL
- Levels of TNF in supernatants (TNF; etoposide 0.01 μM 24 h, then IFN-γ 10 u/ml 24 h): 52 pg/mL
- Levels of TNF in supernatants (TNF; etoposide 0.01 μM 24 h, then IFN-γ 50 u/ml 24 h): 56 pg/mL
- Levels of TNF in supernatants (TNF; etoposide 0.01 μM 24 h, then IFN-γ 100 u/ml 24 h): 65 pg/mL
- Levels of TNF in supernatants (TNF; etoposide 0.01 μM 24 h, then LPS 0 ng/ml 24 h): 66 pg/mL
- Levels of TNF in supernatants (TNF; etoposide 0.01 μM 24 h, then LPS 1 ng/ml 24 h): 207 pg/mL
- Levels of TNF in supernatants (TNF; etoposide 0.01 μM 24 h, then LPS 10 ng/ml 24 h): 3050 pg/mL
- Levels of TNF in supernatants (TNF; etoposide 0.01 μM 24 h, then LPS 100 ng/ml 24 h): 11900 pg/mL
- Levels of TNF in supernatants (TNF; etoposide 0.01 μM 24 h, then LPS 1000 ng/ml 24 h): 12375 pg/mL
- Levels of TNF in supernatants (TNF; etoposide 0.1 μM 24 h, then IFN-γ 10 u/ml 24 h): 20 pg/mL
- Levels of TNF in supernatants (TNF; etoposide 0.1 μM 24 h, then IFN-γ 50 u/ml 24 h): 32 pg/mL
- Levels of TNF in supernatants (TNF; etoposide 0.1 μM 24 h, then IFN-γ 100 u/ml 24 h): 34 pg/mL
- Levels of TNF in supernatants (TNF; etoposide 0.1 μM 24 h, then LPS 0 ng/ml 24 h): 24 pg/mL
- Levels of TNF in supernatants (TNF; etoposide 0.1 μM 24 h, then LPS 1 ng/ml 24 h): 72 pg/mL
- Levels of TNF in supernatants (TNF; etoposide 0.1 μM 24 h, then LPS 10 ng/ml 24 h): 1125 pg/mL
- Levels of TNF in supernatants (TNF; etoposide 0.1 μM 24 h, then LPS 100 ng/ml 24 h): 2325 pg/mL
- Levels of TNF in supernatants (TNF; etoposide 0.1 μM 24 h, then LPS 1000 ng/ml 24 h): 3650 pg/mL
- Levels of IL-6 in supernatants (IL-6 [5]; IC-21, stimulated with IFN-γ, levels very low, FIG. 6B): seemed to be upregulated
- Levels of IL-6 in supernatants (IL-6 [5]; IC-21, stimulation by LPS, FIG. 6A): downregulated
- Total immunoglobulin levels (immunoglobulins; Etoposide-pretreated): 9.2±0.5 mg/ml and 9.2 ± 0.5a mg/ml
- Total immunoglobulin levels (immunoglobulins; Etoposide-treated (from day 40)): 8.5±0.7 mg/ml and 8.5 ± 0.8^a mg/ml
- Cell viability or total cell numbers (IC-21 cells): not to influence the cell viability or total cell numbers
- Proliferative responses to Con A and TSST-1 (spleen mononuclear cells [6]): significantly decreased upon increasing concentrations
- RANTES release (RANTES): upregulated

Source: patent US20030148963A1 (priority 2000, published 2003)
